Reference: PubChem BioAssay (NCI)
Where “and” joins values, the source holds several entries; their conditions need not be identical. Equal values may be shown once.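 These data come from cells grown in 96-well plates and exposed to compound for 48 hours at five concentrations. GI50 is the concentration that inhibits growth by half. TGI: total growth inhibition.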

Legend:
Assay in all cases: inhibition of tumour cell growth, NCI panel, 48 h
CCRF-CEM leukemia = tested on: CCRF-CEM leukemia
CAKI-1 renal = tested on: CAKI-1 renal
MDA-MB-231 breast = tested on: MDA-MB-231 breast
BT-549 breast = tested on: BT-549 breast
TK-10 renal = tested on: TK-10 renal
T-47D breast = tested on: T-47D breast
SR leukemia = tested on: SR leukemia
NCI-H522 lung = tested on: NCI-H522 lung
NCI-H226 lung = tested on: NCI-H226 lung
HL-60(TB) leukemia = tested on: HL-60(TB) leukemia

| SMILES | GI50 (CCRF-CEM leukemia) | TGI (CCRF-CEM leukemia) [µM] | GI50 (CAKI-1 renal) [µM] | TGI (CAKI-1 renal) [µM] | GI50 (MDA-MB-231 breast) [µM] | TGI (MDA-MB-231 breast) | GI50 (BT-549 breast) | TGI (BT-549 breast) | GI50 (TK-10 renal) | TGI (TK-10 renal) | GI50 (T-47D breast) | TGI (T-47D breast) [µM] | GI50 (SR leukemia) | TGI (SR leukemia) | GI50 (NCI-H522 lung) | TGI (NCI-H522 lung) | GI50 (NCI-H226 lung) | TGI (NCI-H226 lung) | GI50 (HL-60(TB) leukemia) | TGI (HL-60(TB) leukemia) [µM] |
| --- | --- | --- | --- | --- | --- | --- | --- | --- | --- | --- | --- | --- | --- | --- | --- | --- | --- | --- | --- | --- |
| CC(=O)Nc1cccc(-n2c(=O)n(C3CC3)c(=O)c3c(Nc4ccc(I)cc4F)n(C)c(=O)c(C)c32)c1 | 9.15 µM and > 10 µM | > 100 | 0.203 | > 46.5 | 0.0345 | 14 µM and > 10 µM | 6.33 µM and > 9.61 µM | 35.5 µM and > 10 µM | < 0.0144 µM and 0.00977 µM | 20.7 µM and > 10 µM | 14.9 µM and > 10 µM | > 77 | 3.65 µM and > 10 µM | 45.6 µM and > 10 µM | 3.79 µM and > 2.33 µM | 22 µM and > 10 µM | 4.37 µM and > 4.88 µM | 47.8 µM and > 10 µM | < 0.01 µM and 0.00141 µM | > 41.7 |
| COc1ccc(NC(=O)Nc2n[nH]c3ccccc23)cc1 | 5.96 µM | > 100 | > 100 | > 100 | > 100 | > 100 µM | > 100 µM | > 100 µM | > 100 µM | > 100 µM | > 100 µM | > 100 | > 100 µM | > 100 µM | > 100 µM | > 100 µM | > 100 µM | > 100 µM | > 100 µM | > 100 |
| COc1cc(/C=C\[N+](=O)[O-])ccc1O | 2.25 µM | 7.23 | 2.85 | 10.9 | 2.6 | 8.94 µM | 2.39 µM | 6.51 µM | 1.72 µM | 3.41 µM | 2.33 µM | 9.95 | 0.987 µM | 38.5 µM | 1.3 µM | 3.02 µM | 4.34 µM | 16.6 µM | 2.39 µM | 6.31 |
| Cc1cc2nc3c4cc(Cl)ccc4n(CCN(C)C)c3nc2cc1C | 1.22 µM | 4.63 | 1.06 | 2.8 | 1.6 | 4.81 µM | 2.53 µM | 8.19 µM | 2.51 µM | 5.74 µM | 2.98 µM | 16.6 | 0.682 µM | 2.88 µM | 1.41 µM | 3.27 µM | 1.98 µM | 4.24 µM | 1.93 µM | 4.33 |
| O=C(c1cccs1)c1c(C(F)(F)F)n([O-])c2ccccc2[n+]1=O | 6.69 µM | 13.1 | 1 | 2.36 | 0.639 | 1.53 µM | 0.908 µM | 2.37 µM | 1.6 µM | 5.43 µM | 4.38 µM | 11.2 | 2.56 µM | 6.03 µM | 0.125 µM | 1.54 µM | 1.05 µM | 3.12 µM | 0.25 µM | 0.966 |
| COc1cc2c3c(cccc3c1)C(=O)N(CCN1CCCC1)C2=O | 2.86 µM | > 100 | 2.56 | > 100 | 2.46 | 10.2 µM | 2.95 µM | 8.33 µM | 24.8 µM | > 100 µM | 2.5 µM | 8.76 | 1.47 µM | > 100 µM | 2.3 µM | 5.78 µM | – | – | 3.65 µM | 61 |
| CN(C)CC(=O)N1CCC(c2ccc(NC(=O)c3ncc(C#N)[nH]3)c(C3=CCCCC3)c2)CC1 | 7.26 µM | 28.5 | 3.52 | 16.1 | 8.31 | 23.2 µM | 4.52 µM | 16.1 µM | 7.86 µM | 20.6 µM | 11.9 µM | 28.8 | 2.58 µM | 6.52 µM | 7.88 µM | 23.1 µM | 11.3 µM | 24.2 µM | 2.99 µM | 8.86 |
| COc1ccc(-c2nn(-c3cccc(Cl)c3)cc2C2CC(c3ccccc3)=NN2C(C)=O)cc1 (stereo unspecified) | > 100 µM | > 100 | 6.54 | > 100 | 7.99 | > 100 µM | 3.23 µM | 19.7 µM | 5 µM | 21.6 µM | 8.53 µM | > 100 | 8.98 µM | > 100 µM | 32.6 µM | > 100 µM | 3.86 µM | 30.9 µM | > 100 µM | > 100 |
| COc1cc(-n2cc(-c3ccc(Cl)c(Cl)c3)nc2SCc2ccccc2)cc(OC)c1OC | > 100 µM | > 100 | > 100 | > 100 | > 100 | > 100 µM | > 100 µM | > 100 µM | > 100 µM | > 100 µM | > 100 µM | > 100 | > 100 µM | > 100 µM | 44.8 µM | > 100 µM | > 100 µM | > 100 µM | > 100 µM | > 100 |
| C[C@@H]1CC[C@@H]2[C@@H]1[C@H](OC(=O)/C=C/c1ccccc1)[C@]1(c3ccccc3)C[C@@H](OC(=O)CO)[C@@]2(C)O1 | 20.8 µM | 84.2 | 0.504 | 18.4 | 16.5 | 34.2 µM | 0.406 µM | 17.7 µM | 18.2 µM | 41.8 µM | 6.67 µM | 21.2 | 5.86 µM | 38.8 µM | 13.2 µM | 30 µM | 13.2 µM | 29 µM | 14.9 µM | 53.9 |
| CC1(C)N=C(N)N=C(N)N1c1ccc(CCCCc2ccc(S(=O)(=O)F)cc2)cc1 | 0.561 µM | 19.7 | 3.7 | > 100 | 3.53 | 25 µM | 7.97 µM | 20.9 µM | 1.14 µM | 17.6 µM | 2.09 µM | 10.3 | 0.58 µM | 25.8 µM | 2.43 µM | 16.2 µM | 1.99 µM | 33.2 µM | 0.828 µM | 22.1 |
| CCOc1ccc(S(=O)(=O)/N=C2\C=C(SCC(=O)O)C(=O)c3ccccc32)cc1 | – | – | 7.76 | 20.8 | 2.84 | 12.2 µM | 4.66 µM | 15 µM | 26.5 µM | 56.9 µM | 2.72 µM | 7.18 | 0.538 µM | 5.26 µM | 2.53 µM | 6.63 µM | 21.7 µM | 50.6 µM | 2.35 µM | 6.99 |
